The source of these data is the supplement of paper PMC7695840.

Several values for one entry are separate records, joined by “and”; a condition that tells them apart may be missing. Equal values may be shown once. Where a name gives a salt, the structure may show the parent alone.

For assay [1], the system named is Staphylococcus aureus MW2 delta-mecA (mecA-). Nature of the assay: IC50 (growth, competition assay). The following applies: cefoxitin: subinhibitory. The gist of the method:
(§1)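 Two fluorescent S. aureus MW2 strains, one carrying and one lacking the resistance gene, were pre-induced, mixed 1:1 and grown unshaken in LB in 1536-well plates for 20 h at 37 °C and 90% humidity with a subinhibitory drug dose set each day. Compounds were tested on five- or nine-point 2-fold gradients in two dye-swapped replicates. DsRed (540/590) and GFP (485/520) signals were scaled per plate between the medians of single-strain controls, and No Treatment was then set to 0.5. For each strain, IC50 was taken as the dose that halved the No Treatment signal, or else the maximal signal.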

In assay [2] the test system is Staphylococcus aureus MW2 (mecA+). Nature of the assay: IC50 (growth, competition assay). To be noted: cefoxitin: subinhibitory. The gist of the method: as §1

On to `O=C1NC(=O)/C(=C/c2cccc(C(F)(F)F)c2)S1` [SMI-4a], for which the IC50 – broadly, the point on the concentration scale where inhibition reaches its midpoint – is less than 9.85 µM in assay [1] (fluorescent label: DsRed); 12.2 µM and 14.6 µM in assay [1] (fluorescent label: GFP); less than 9.85 µM in assay [2] (fluorescent label: DsRed); less than 9.85 µM in assay [2] (fluorescent label: GFP).
Consider `CC[C@@H]1C(=O)N(C)c2cnc(Nc3ccc(C(=O)NC4CCN(C)CC4)cc3OC)nc2N1C1CCCC1` [BI 2536], for which the IC50 in assay [1] (fluorescent label: DsRed) turned out to be 21.6 µM; in assay [1] (fluorescent label: GFP), 30.1 µM; in assay [2] (fluorescent label: DsRed), 106 µM; in assay [2] (fluorescent label: GFP) it was 112 µM.
For the compound `CC(=O)NC1CCSC1=O` (stereo not drawn) [CITIOLASE], the IC50 is 12.4 µM in assay [1] (fluorescent label: DsRed), 38.9 µM in assay [1] (fluorescent label: GFP), 56.8 µM in assay [2] (fluorescent label: DsRed) and 10.2 µM in assay [2] (fluorescent label: GFP).
Consider `C[C@@H](NCCCc1cccc(C(F)(F)F)c1)c1cccc2ccccc12` [AMG-073 HCl (Cinacalcet hydrochloride)], for which the IC50 in assay [1] (fluorescent label: DsRed) was 13.4 µM; in assay [1] (fluorescent label: GFP), less than 9.85 µM; in assay [2] (fluorescent label: DsRed) it was 48.8 µM; in assay [2] (fluorescent label: GFP) it was 54.9 µM.
As for `CC[C@H](C)C[C@H](C)CCCCCCCCC(=O)N[C@H]1C[C@@H](O)[C@@H](NCCN)NC(=O)[C@@H]2[C@@H](O)CCN2C(=O)[C@H]([C@H](O)CCN)NC(=O)[C@H]([C@H](O)[C@@H](O)c2ccc(O)cc2)NC(=O)[C@@H]2C[C@@H](O)CN2C(=O)[C@H]([C@@H](C)O)NC1=O` [Caspofungin acetate], the IC50 was 14.4 µM in assay [1] (fluorescent label: DsRed), less than 9.85 µM in assay [1] (fluorescent label: GFP), 36.7 µM in assay [2] (fluorescent label: DsRed) and 42.1 µM in assay [2] (fluorescent label: GFP).
In the same order, the values of `O=C(/C=C/c1ccc(O)c(O)c1)OCCc1ccccc1` [Caffeic acid phenethyl ester] are 22.9 µM, 19.4 µM, 57.7 µM and 88.4 µM.
In the same order, the values of `CCN(CC)CCOc1ccc(C(=C(Cl)c2ccccc2)c2ccccc2)cc1` [Clomifene citrate (Serophene)] are less than 9.85 µM, less than 9.85 µM, 15 µM and 14.9 µM.
In the same order, the values of `C[C@H]1O[C@@H](n2cc(F)c(=O)[nH]c2=O)[C@H](O)[C@@H]1O` [FURTULON] are less than 9.85 µM, less than 9.85 µM, 10.3 µM and less than 9.85 µM.
As for `CC(=O)OC[C@H]1O[C@@H]([S-])[C@H](OC(C)=O)[C@@H](OC(C)=O)[C@@H]1OC(C)=O.CCP(CC)CC.[Au+]` [Auranofin], the IC50 in assay [1] (fluorescent label: DsRed), in assay [1] (fluorescent label: GFP), in assay [2] (fluorescent label: DsRed) and in assay [2] (fluorescent label: GFP) was less than 9.85 µM throughout.
For the compound `CCCCCCCCCCCCCCCC(=O)OC(CC(=O)O)C[N+](C)(C)C` (racemic) [Palmitoyl-DL-Carnitine chloride], the IC50 was less than 9.85 µM in assay [1] (fluorescent label: DsRed), less than 9.85 µM in assay [1] (fluorescent label: GFP), 12.1 µM in assay [2] (fluorescent label: DsRed) and 14.3 µM in assay [2] (fluorescent label: GFP).
In the case of `CC[C@H]1OC(=O)C[C@@H](O)[C@H](C)[C@@H](O[C@@H]2O[C@H](C)[C@@H](O[C@H]3C[C@@](C)(O)[C@@H](O)[C@H](C)O3)[C@H](N(C)C)[C@H]2O)[C@@H](CC=O)C[C@@H](C)C(=O)/C=C/C(C)=C/[C@@H]1CO[C@@H]1O[C@H](C)[C@@H](O)[C@@H](OC)[C@H]1OC` [TYLAN], the IC50 in assay [1] (fluorescent label: DsRed), in assay [1] (fluorescent label: GFP), in assay [2] (fluorescent label: DsRed) and in assay [2] (fluorescent label: GFP) was less than 9.85 µM in each case.
As to `COc1cc([C@@H]2c3cc4c(cc3[C@@H](O[C@@H]3O[C@@H]5CO[C@@H](C)O[C@H]5[C@H](O)[C@H]3O)[C@H]3COC(=O)[C@H]23)OCO4)cc(OC)c1O` [Etoposide], the half-maximal inhibitory concentration (IC50) in assay [1] (fluorescent label: DsRed) is less than 9.85 µM; in assay [1] (fluorescent label: GFP) it was less than 9.85 µM; in assay [2] (fluorescent label: DsRed), 14.9 µM; in assay [2] (fluorescent label: GFP) it was 14.9 µM.
On to `CC(C)[C@H]1c2ccc(F)cc2CC[C@@]1(CCN(C)CCCc1nc2ccccc2[nH]1)OC(=O)C1CC1` [NNC 55-0396], for which the IC50 in assay [1] (fluorescent label: DsRed) is less than 9.85 µM; in assay [1] (fluorescent label: GFP) it was less than 9.85 µM; in assay [2] (fluorescent label: DsRed), 14.8 µM; in assay [2] (fluorescent label: GFP), 14.9 µM.
Regarding `CC[C@@H](C(=O)O)[C@@H]1O[C@@H]([C@@H](C)[C@H](O)[C@H](C)C(=O)[C@H](CC)[C@H]2O[C@]3(C=C[C@@H](O)[C@]4(CC[C@@](C)([C@H]5CC[C@](O)(CC)[C@H](C)O5)O4)O3)[C@H](C)C[C@@H]2C)[C@@H](C)C[C@@H]1C` [NARASIN], the IC50 in assay [1] (fluorescent label: DsRed), in assay [1] (fluorescent label: GFP), in assay [2] (fluorescent label: DsRed) and in assay [2] (fluorescent label: GFP) was less than 9.85 µM each time.
On to `O=C(Nc1ccccc1)Nc1ccc(-c2ccc(C(=O)[C@@H]3CCC[C@H]3C(=O)O)cc2)cc1`, for which the IC50 in assay [1] (fluorescent label: DsRed) was less than 9.85 µM; in assay [1] (fluorescent label: GFP) it was less than 9.85 µM; in assay [2] (fluorescent label: DsRed) it was 22.7 µM; in assay [2] (fluorescent label: GFP), 41.4 µM.
Regarding `COc1cc(Cc2cnc(N)nc2N)cc(OC)c1OC` [Trimethoprim], the IC50 is less than 9.85 µM in assay [1] (fluorescent label: DsRed); less than 9.85 µM in assay [1] (fluorescent label: GFP); 12.4 µM and < 9.85 µM in assay [2] (fluorescent label: DsRed); 14.6 µM and 14.2 µM in assay [2] (fluorescent label: GFP).
Consider `O=c1[nH]c(=O)n([C@H]2C[C@H](O)[C@@H](CO)O2)cc1C(F)(F)F` [VIROPTIC], for which the IC50 in assay [1] (fluorescent label: DsRed) was less than 9.85 µM; in assay [1] (fluorescent label: GFP), less than 9.85 µM; in assay [2] (fluorescent label: DsRed) it was 59 µM; in assay [2] (fluorescent label: GFP), 108 µM.
`CCCCC(CC)COC(=O)CC(C(=O)OCC(CC)CCCC)S(=O)(=O)O` (stereo not drawn) [COLACE]: the IC50 is 18 µM in assay [1] (fluorescent label: DsRed), 13.5 µM in assay [1] (fluorescent label: GFP), 56.6 µM in assay [2] (fluorescent label: DsRed) and 52.5 µM in assay [2] (fluorescent label: GFP).
For the compound `CCC(=O)Nc1cccc(Oc2nc(Nc3ccc(N4CCN(C)CC4)cc3OC)ncc2Cl)c1` [WZ4003], the IC50 in assay [1] (fluorescent label: DsRed), in assay [1] (fluorescent label: GFP), in assay [2] (fluorescent label: DsRed) and in assay [2] (fluorescent label: GFP) was greater than 150 µM throughout.
Turning to `N#C[C@H](O[C@@H]1O[C@H](CO[C@@H]2O[C@H](CO)[C@@H](O)[C@H](O)[C@H]2O)[C@@H](O)[C@H](O)[C@H]1O)c1ccccc1` [Amygdalin], the IC50 was less than 9.85 µM in assay [1] (fluorescent label: DsRed), less than 9.85 µM in assay [1] (fluorescent label: GFP), 23.8 µM in assay [2] (fluorescent label: DsRed) and 28.9 µM in assay [2] (fluorescent label: GFP).
On to `O=c1oc2ccccc2c(O)c1Cc1c(O)c2ccccc2oc1=O` [DICUMOL], for which the IC50 in assay [1] (fluorescent label: DsRed) is 14 µM; in assay [1] (fluorescent label: GFP), 27 µM; in assay [2] (fluorescent label: DsRed) it was 11.6 µM; in assay [2] (fluorescent label: GFP), 18.2 µM.
For the compound `CCCCc1oc2ccc(NS(C)(=O)=O)cc2c1C(=O)c1ccc(OCCCN(CCCC)CCCC)cc1` [Dronedarone HCl (Multaq)], the IC50 was 5.95 µM in assay [1] (fluorescent label: DsRed), 3.07 µM in assay [1] (fluorescent label: GFP), 14.3 µM in assay [2] (fluorescent label: DsRed) and 14.9 µM in assay [2] (fluorescent label: GFP).
As to `CC(=O)Oc1c2c(c(CC=C(C)C)c3c1C(=O)C1=C[C@@H]4CC5C(C)(C)OC(C/C=C(\C)C(=O)O)(C4=O)[C@@]15O3)OC(C)(CCC=C(C)C)C=C2` (stereo partly drawn) [ACETYL ISOGAMBOGIC ACID], the IC50 was less than 9.85 µM in assay [1] (fluorescent label: DsRed), less than 9.85 µM in assay [1] (fluorescent label: GFP), 13.5 µM in assay [2] (fluorescent label: DsRed) and 17.2 µM in assay [2] (fluorescent label: GFP).
With `Cc1ccc(-c2cc(C(F)(F)F)nn2-c2ccc(S(N)(=O)=O)cc2)cc1` [Celecoxib], the IC50 in assay [1] (fluorescent label: DsRed) is 8.58 µM and 20.1 µM; in assay [1] (fluorescent label: GFP) it was 9.91 µM and 18.2 µM; in assay [2] (fluorescent label: DsRed), 114 µM and 112 µM; in assay [2] (fluorescent label: GFP), 112 µM and 95.4 µM.
Turning to `Cc1cc2c(C(C)C)c(O)c(O)c(C=O)c2c(O)c1-c1c(C)cc2c(C(C)C)c(O)c(O)c(C=O)c2c1O` [Gossypol], the IC50 in assay [1] (fluorescent label: DsRed), in assay [1] (fluorescent label: GFP), in assay [2] (fluorescent label: DsRed) and in assay [2] (fluorescent label: GFP) was less than 9.85 µM each time.
With `COc1cccc(C2(O)CCCCC2CN(C)C)c1` (stereo not drawn) [ULTRAM], the IC50 came to 101 µM in assay [1] (fluorescent label: DsRed), 60.8 µM in assay [1] (fluorescent label: GFP), 131 µM in assay [2] (fluorescent label: DsRed) and 135 µM in assay [2] (fluorescent label: GFP).
`c1ccc(-c2ccc(C(c3ccccc3)n3ccnc3)cc2)cc1` (stereo not drawn) [MYCOSPOR]: the IC50 in assay [1] (fluorescent label: DsRed) came out at 16.8 µM; in assay [1] (fluorescent label: GFP), 10.5 µM; in assay [2] (fluorescent label: DsRed), 15.5 µM; in assay [2] (fluorescent label: GFP), 19.1 µM.
